{"source": "paper PMC12512194", "about": "“The Allosteric Regulator Inositol Phosphate Dramatically Affects the Efficacy and Selectivity of Inhibitors for Different HDAC Complexes” (Journal of the American Chemical Society, 2025)", "key": {"HDAC3": {"target": "T1, HDAC3 (Homo sapiens, UniProt O15379)", "T1 construct": "endogenous in cells; host or cells: HCT116", "T1 sequence (O15379 whole entry)": "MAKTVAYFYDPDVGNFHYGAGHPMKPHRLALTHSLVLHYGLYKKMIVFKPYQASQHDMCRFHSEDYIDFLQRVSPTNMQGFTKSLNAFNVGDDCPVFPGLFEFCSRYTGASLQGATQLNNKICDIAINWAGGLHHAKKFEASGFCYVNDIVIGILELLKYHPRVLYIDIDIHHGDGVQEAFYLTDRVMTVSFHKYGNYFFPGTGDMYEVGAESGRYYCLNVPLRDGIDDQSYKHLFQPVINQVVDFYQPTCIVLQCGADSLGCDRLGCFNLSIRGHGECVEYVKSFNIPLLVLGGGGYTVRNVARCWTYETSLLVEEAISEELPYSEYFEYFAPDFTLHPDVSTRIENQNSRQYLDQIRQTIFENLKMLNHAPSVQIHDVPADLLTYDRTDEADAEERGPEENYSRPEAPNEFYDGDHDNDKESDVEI", "T1 sequence (Q9Y618 whole entry partner)": "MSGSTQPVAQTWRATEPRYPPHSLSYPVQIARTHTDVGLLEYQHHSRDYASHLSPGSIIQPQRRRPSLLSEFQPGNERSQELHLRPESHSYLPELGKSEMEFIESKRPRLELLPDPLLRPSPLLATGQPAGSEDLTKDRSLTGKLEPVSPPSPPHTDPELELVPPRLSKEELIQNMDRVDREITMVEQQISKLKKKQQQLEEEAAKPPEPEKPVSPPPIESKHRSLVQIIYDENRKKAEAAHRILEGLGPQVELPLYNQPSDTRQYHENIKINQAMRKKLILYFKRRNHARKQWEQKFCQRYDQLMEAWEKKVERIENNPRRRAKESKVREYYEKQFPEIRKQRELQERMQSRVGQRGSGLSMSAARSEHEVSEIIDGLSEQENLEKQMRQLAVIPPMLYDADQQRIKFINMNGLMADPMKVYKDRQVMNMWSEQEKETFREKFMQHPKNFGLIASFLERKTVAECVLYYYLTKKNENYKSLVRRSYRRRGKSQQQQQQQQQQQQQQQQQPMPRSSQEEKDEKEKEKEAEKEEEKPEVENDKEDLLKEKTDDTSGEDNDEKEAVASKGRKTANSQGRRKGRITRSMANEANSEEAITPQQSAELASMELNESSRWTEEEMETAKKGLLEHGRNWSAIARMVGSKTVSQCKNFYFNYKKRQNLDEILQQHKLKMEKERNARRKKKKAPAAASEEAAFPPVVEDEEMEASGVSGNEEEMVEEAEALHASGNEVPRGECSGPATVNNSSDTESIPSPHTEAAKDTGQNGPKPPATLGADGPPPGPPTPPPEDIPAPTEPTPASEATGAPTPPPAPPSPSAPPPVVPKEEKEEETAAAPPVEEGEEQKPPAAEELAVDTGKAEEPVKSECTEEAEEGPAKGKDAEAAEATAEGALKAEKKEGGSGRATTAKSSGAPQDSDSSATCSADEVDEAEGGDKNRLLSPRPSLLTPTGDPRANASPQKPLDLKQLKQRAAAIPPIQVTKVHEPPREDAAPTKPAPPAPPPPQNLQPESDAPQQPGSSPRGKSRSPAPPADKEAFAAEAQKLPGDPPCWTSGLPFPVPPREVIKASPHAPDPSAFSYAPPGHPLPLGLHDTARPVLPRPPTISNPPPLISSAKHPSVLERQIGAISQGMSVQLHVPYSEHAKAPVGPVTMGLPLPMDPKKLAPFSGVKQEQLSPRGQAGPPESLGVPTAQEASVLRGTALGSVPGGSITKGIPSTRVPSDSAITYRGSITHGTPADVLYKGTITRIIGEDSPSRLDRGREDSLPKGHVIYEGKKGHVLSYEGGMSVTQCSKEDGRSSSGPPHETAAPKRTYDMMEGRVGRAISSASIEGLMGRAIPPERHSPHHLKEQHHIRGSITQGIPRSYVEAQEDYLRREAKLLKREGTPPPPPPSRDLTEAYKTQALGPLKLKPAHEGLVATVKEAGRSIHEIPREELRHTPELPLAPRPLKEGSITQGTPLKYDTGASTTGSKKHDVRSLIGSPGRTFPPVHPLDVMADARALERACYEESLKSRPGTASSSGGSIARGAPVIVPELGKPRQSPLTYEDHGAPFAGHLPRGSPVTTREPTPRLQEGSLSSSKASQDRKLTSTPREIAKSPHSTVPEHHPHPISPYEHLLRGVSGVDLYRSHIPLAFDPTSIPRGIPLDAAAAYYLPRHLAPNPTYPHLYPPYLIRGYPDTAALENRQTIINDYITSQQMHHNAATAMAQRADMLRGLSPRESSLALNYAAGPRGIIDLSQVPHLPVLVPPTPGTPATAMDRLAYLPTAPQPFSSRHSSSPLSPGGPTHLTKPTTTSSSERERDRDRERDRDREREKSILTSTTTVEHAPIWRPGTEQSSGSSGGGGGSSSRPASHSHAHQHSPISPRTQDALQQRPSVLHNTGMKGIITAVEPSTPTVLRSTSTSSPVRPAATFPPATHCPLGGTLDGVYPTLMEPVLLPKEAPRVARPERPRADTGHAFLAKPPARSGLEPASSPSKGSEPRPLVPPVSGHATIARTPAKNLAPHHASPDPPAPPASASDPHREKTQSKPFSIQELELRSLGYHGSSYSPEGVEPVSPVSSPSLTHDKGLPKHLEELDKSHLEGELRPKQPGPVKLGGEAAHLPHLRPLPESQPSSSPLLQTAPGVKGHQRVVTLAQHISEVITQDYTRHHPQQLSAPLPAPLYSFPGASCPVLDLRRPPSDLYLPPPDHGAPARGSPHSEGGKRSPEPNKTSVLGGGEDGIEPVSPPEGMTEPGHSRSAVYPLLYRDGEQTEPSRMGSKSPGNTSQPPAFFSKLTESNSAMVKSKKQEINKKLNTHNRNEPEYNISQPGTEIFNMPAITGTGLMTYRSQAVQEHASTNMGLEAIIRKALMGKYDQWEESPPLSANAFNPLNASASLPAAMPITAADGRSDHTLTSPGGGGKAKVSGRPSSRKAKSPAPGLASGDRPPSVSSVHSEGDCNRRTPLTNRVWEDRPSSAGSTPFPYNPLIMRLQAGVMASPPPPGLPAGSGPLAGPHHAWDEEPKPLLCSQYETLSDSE", "test": "HDAC3 protein level / degradation by immunoblot in HCT116 cells", "assay_type": "cell-based", "details": "even at 10 μM", "protocol": "complex and inhibitor were then incubated at 20 °C, 100 RPM for 2 hours . After incubation, 10 μL of the Boc -(Ac)Lys -AMC substrate, dissolved in HDAC assay buffer, was added to each well. The plate was incubate d at 30 °C, 100 RPM for 1 hour, followed by addition of 50 μL of a developer buffer (50 mM Tris pH 7.5, 100 mM NaCl, 10 mg/mL trypsin) to quench the reaction. The reaction was allowed to develop for 10 minutes at 30 °C, 100 RPM. Fluorescence intensity was determined with the Victor X5 plate reader (Perkin Elmer, λex = 355 nm, λem = 460 nm). IC50 values were calculated using GraphPad Prism 7 software by non-linear regression, log (inhibitor) vs. response – variable slope (four […]\n(§1) 6. Culture of HCT116 cells\nHCT116 cells were maintained on 100 mm or 60 mm culture dishes in Dulbecco's Modified Eagle Medium (Gibco) supplemented with 10% fetal bovine serum (Sigma) and 1X glutamine/penicillin/streptomycin (Gibco) . Once the cells reached ~90% confluency, they were washed with warm PBS (Sigma), trypsinised using TrypLETM Express solution (Gibco) and put into an incubator at 37°C for 5 minutes. […]\nmins, 4 °C) and the supernatant was collected. Protein concentrations were quantified via Bradford Assay using Protein Assay Dye Reagent Concentrate (BIO -RAD). […]"}, "HDAC1": {"target": "T2, HDAC1 (Homo sapiens, UniProt Q13547)", "T2 construct": "endogenous in cells; host or cells: HCT116", "T2 sequence (Q13547 whole entry)": "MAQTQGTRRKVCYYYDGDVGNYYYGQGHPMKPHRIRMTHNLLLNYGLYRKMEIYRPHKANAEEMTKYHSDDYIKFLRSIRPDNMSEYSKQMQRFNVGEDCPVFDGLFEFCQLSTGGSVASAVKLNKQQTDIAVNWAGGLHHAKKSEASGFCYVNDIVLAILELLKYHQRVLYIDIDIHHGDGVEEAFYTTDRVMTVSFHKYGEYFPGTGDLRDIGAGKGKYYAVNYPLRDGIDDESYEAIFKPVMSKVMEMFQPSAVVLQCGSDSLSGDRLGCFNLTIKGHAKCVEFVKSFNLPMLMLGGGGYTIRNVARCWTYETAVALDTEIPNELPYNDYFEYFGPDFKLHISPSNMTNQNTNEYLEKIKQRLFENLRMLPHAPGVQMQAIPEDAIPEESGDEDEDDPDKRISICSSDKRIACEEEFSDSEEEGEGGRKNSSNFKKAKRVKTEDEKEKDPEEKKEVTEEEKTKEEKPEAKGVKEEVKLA", "test": "HDAC1 protein level / degradation by immunoblot in HCT116 cells", "assay_type": "cell-based", "details": "even at 10 μM", "protocol": "complex and inhibitor were then incubated at 20 °C, 100 RPM for 2 hours . After incubation, 10 μL of the Boc -(Ac)Lys -AMC substrate, dissolved in HDAC assay buffer, was added to each well. The plate was incubate d at 30 °C, 100 RPM for 1 hour, followed by addition of 50 μL of a developer buffer (50 mM Tris pH 7.5, 100 mM NaCl, 10 mg/mL trypsin) to quench the reaction. The reaction was allowed to develop for 10 minutes at 30 °C, 100 RPM. Fluorescence intensity was determined with the Victor […]\nIC50 values were calculated using GraphPad\nPrism 7 software by non-linear regression, log (inhibitor) vs. response – variable slope (four […]\nas §1\nHCT116 cells were maintained on 100 mm or 60 mm culture dishes in Dulbecco's Modified Eagle Medium (Gibco) supplemented with 10% fetal bovine serum (Sigma) and 1X glutamine/penicillin/streptomycin (Gibco) . Once the cells reached ~90% confluency, they were washed with warm PBS (Sigma), trypsinised using TrypLETM Express solution (Gibco) and put into an incubator at 37°C for 5 minutes. Once dissociated, cell media was used to dilute the cells into required"}}}
{"smiles": "Cc1ncsc1-c1ccc(CNC(=O)[C@@H]2C[C@@H](O)CN2C(=O)[C@@H](NC(=O)CCCCCCCCCC(=O)N2CCN(c3cnc(C(=O)Nc4cc(-c5ccncc5)ccc4N)cn3)CC2)C(C)(C)C)cc1", "note": "[JPS062]", "values": [{"measurement": "degradation of HDAC3", "setting": "HDAC3", "result": "no degradation"}, {"measurement": "degradation of HDAC1", "setting": "HDAC1", "result": "no degradation"}]}
